Columns and labels:
CDK2 = biological target: T1, CDK2 (Homo sapiens, UniProt P24941); assay: CDK protein degradation activity (Western blotting), CDK2; assay type: cell-based; settings: MDA-MB-231 cells, 16 hours, Western blot
T1 construct: endogenous in cells; host or cells: MDA-MB-231
Protocol: (§1) In order to evaluate the CDK protein degradation activity of the compounds according to the present invention, the following experiment was conducted.
(§2) MDA-MB-231 cells were seeded at 5×10^5 cells per well in a 6-well plate. The next day, the compounds were treated in each well to achieve final concentrations of 100 nM, 1 μM, and 10 μM. For the control group, an equal amount of DMSO was treated in the well as the compound. After 16 hours of treatment, cells were collected, and cell lysates were prepared using Triton X-100 lysis buffer (50 mM HEPES, pH 7.5, 40 mM NaCl, 1% Triton X-100, 1 mM EDTA, 1 mM EGTA, 10 mM pyrophosphate, 10 mM β-glycerophosphate, 50 mM NaF, 1 mM NaVO4, protease inhibitor). Cell lysates were quantified and separated by size using sodium dodecyl sulfate-polyacrylamide gel electrophoresis (SDS-PAGE). Western blotting was then performed using antibodies that recognize CDK2, CDK9, and tubulin, respectively. The results obtained by Western blotting were quantitatively analyzed using the ImageJ program, and representative images according to the experimental results are shown in FIG. 1.

CDK9 = biological target: T2, CDK9 (Homo sapiens, UniProt P50750); assay: CDK protein degradation activity (Western blotting), CDK9; assay type: cell-based; settings: MDA-MB-231 cells, 16 hours, Western blot
T2 construct: endogenous in cells; host or cells: MDA-MB-231
T2 sequence (P50750 whole entry): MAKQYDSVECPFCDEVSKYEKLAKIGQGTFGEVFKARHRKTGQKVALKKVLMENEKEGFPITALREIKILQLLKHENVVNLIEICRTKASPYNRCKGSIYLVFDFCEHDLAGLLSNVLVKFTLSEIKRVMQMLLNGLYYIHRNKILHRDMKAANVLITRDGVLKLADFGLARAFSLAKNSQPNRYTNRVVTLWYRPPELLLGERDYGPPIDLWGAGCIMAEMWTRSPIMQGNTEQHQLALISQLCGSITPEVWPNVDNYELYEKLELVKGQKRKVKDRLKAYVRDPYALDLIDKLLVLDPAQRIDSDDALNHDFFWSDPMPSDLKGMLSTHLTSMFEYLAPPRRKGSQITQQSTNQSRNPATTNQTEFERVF
Protocol: as §1, §2

| Structure (SMILES) | Enzyme degradation CDK2 (% remaining) @ 0.1 μM (CDK2) | Enzyme degradation CDK2 (% remaining) @ 1 μM (CDK2) | Enzyme degradation CDK2 (% remaining) @ 10 μM (CDK2) | Enzyme degradation CDK9 (% remaining) @ 0.1 μM (CDK9) | Enzyme degradation CDK9 (% remaining) @ 1 μM (CDK9) | Enzyme degradation CDK9 (% remaining) @ 10 μM (CDK9) |
| --- | --- | --- | --- | --- | --- | --- |
| Cc1cccc(C(=O)N[C@H]2C[C@@H](n3cnc4c(NCc5cccc(N6CCN(CC7CCN(C(=O)COc8cccc9c8C(=O)N(C8CCC(=O)NC8=O)C9=O)CC7)CC6)c5)ncnc43)C2)n1 (stereo partly drawn) [Compound 132, N-((1s,3s)-3-(6-((3-(4-((1-(2-((2-(2,6-dioxopiperidin-3-yl)-1,3-dioxoisoindolin-4-yl)oxy)acetyl)piperidin-4-yl)methyl)piperazin-1-yl)benzyl)amino)-9H-purin-9-yl)cyclobutyl)-6-methylpicolinamide] | 60% | 40% | 40% | 70% | 10% | 0% |
| Cc1cccc(C(=O)NC2CC(n3cnc4c(Nc5ccc(N6CCN(CCC7CCN(C(=O)C8CCN(c9cc%10c(cc9F)C(=O)N([C@H]9CCC(=O)NC9=O)C%10=O)CC8)CC7)CC6)cc5)ncnc43)C2)n1 (stereo partly drawn) [Compound 449, N-((1s,3s)-3-(6-((4-(4-(2-(1-(1-(2-(2,6-dioxopiperidin-3-yl)-6-fluoro-1,3-dioxoisoindolin-5-yl)piperidin-4-carbonyl)piperidin-4-yl)ethyl)piperazin-1-yl)phenyl)amino)-9H-purin-9-yl)cyclobutyl)-6-methylpicolinamide] | 50% | 40% | 40% | 10/10/10% | 10/10/10% | 10/10/10% |
| O=C1CC[C@@H](c2ccc(OCC(=O)N3CCC(CN4CCN(c5ccc(Nc6ncnc7c6ncn7[C@H]6C[C@@H](NC(=O)c7c(Cl)cccc7Cl)C6)cc5)CC4)CC3)cc2)C(=O)N1 [Compound 437, 2,6-dichloro-N-((1s,3s)-3-(6-((4-(4-((1-(2-(4-(2,6-dioxopiperidin-3-yl)phenoxy)acetyl)piperidin-4-yl)methyl)piperazin-1-yl)phenyl)amino)-9H-purin-9-yl)cyclobutyl)benzamide] | 30% | 40% | 40% | 10/10/10% | 10/10/10% | 10/10/10% |
| O=C1CC[C@H](N2C(=O)c3ccc(N4CCC(C(=O)N5CCN(C6CC7(CCN(c8ccc(Nc9ncnc%10c9ncn%10[C@H]9C[C@@H](NC(=O)Cc%10ccccc%10)C9)cc8)CC7)C6)CC5)CC4)cc3C2=O)C(=O)N1 [Compound 361, N-((1s,3s)-3-(6-((4-(2-(4-(1-(2-(2,6-dioxopiperidin-3-yl)-1,3-dioxoisoindolin-5-yl)piperidin-4-carbonyl)piperazin-1-yl)-7-azaspiro[3.5]nonan-7-yl)phenyl)amino)-9H-purin-9-yl)cyclobutyl)-2-phenylacetamide] | 20% | 10% | 10% | 50% | 10% | 10% |
| O=C1CCC(N2C(=O)c3cccc(N4CCC(OCCN5CCN(c6ccc(Nc7ncnc8c7ncn8[C@H]7C[C@@H](NC(=O)Cc8ccccc8)C7)cc6)CC5)CC4)c3C2=O)C(=O)N1 (stereo partly drawn) [Compound 260, N-((1s,3s)-3-(6-((4-(4-(2-((1-(2-(2,6-dioxopiperidin-3-yl)-1,3-dioxoisoindolin-4-yl)piperidin-4-yl)oxy)ethyl)piperazin-1-yl)phenyl)amino)-9H-purin-9-yl)cyclobutyl)-2-phenylacetamide] | 20/20/20% | 20/20/20% | 20/20/20% | 60/60/60% | 60/60/60% | 60/60/60% |
| O=C1CC[C@H](N2C(=O)C=C(Nc3cccc(CC(=O)N4CCC(CN5CCN(c6ccc(Nc7ncnc8c7ncn8C7CC(NC(=O)Cc8ccccc8)C7)cc6)CC5)CC4)c3)C2=O)C(=O)N1 (stereo partly drawn) [Compound 188, N-((1s,3s)-3-(6-((4-(4-((1-(2-(3-((1-(2,6-dioxopiperidin-3-yl)-2,5-dioxo-2,5-dihydro-1H-pyrrol-3-yl)amino)phenyl)acetyl)piperidin-4-yl)methyl)piperazin-1-yl)phenyl)amino)-9H-purin-9-yl)cyclobutyl)-2-phenylacetamide] | 80% | 70% | 60% | 20% | 20% | 10% |
| Cc1cccc(C(=O)NC2CC(n3cnc4c(NCc5ccc(N6CCN(C(=O)CNc7cccc8c7C(=O)N([C@H]7CCC(=O)NC7=O)C8=O)CC6)cc5)ncnc43)C2)n1 (stereo partly drawn) [Compound 148, N-((1s,3s)-3-(6-((4-(4-((2-(2,6-dioxopiperidin-3-yl)-1,3-dioxoisoindolin-4-yl)glycyl)piperazin-1-yl)benzyl)amino)-9H-purin-9-yl)cyclobutyl)-6-methylpicolinamide] | 40% | 50% | 60% | 10% | 0% | 0% |
| Cc1cccc(C(=O)NC2CC(n3cnc4c(NCCC5CCN(CC6CCN(CC7CN(c8ccc9c(c8)C(=O)N([C@H]8CCC(=O)NC8=O)C9=O)C7)CC6)CC5)ncnc43)C2)n1 (stereo partly drawn) [Compound 402, N-((1s,3s)-3-(6-((2-(1-((1-((1-(2-(2,6-dioxopiperidin-3-yl)-1,3-dioxoisoindolin-5-yl)azetidin-3-yl)methyl)piperidin-4-yl)methyl)piperidin-4-yl)ethyl)amino)-9H-purin-9-yl)cyclobutyl)-6-methylpicolinamide] | 70% | 50% | 50% | 0/0/0% | 0/0/0% | 0/0/0% |
| Cc1cccc(C(=O)NC2CC(n3cnc4c(NCC5CCN(CC6CCN(c7ccc8c(c7)C(=O)N([C@@H]7CCC(=O)NC7=O)C8=O)CC6)CC5)ncnc43)C2)n1 (stereo partly drawn) [Compound 76, N-((1r,3r)-3-(6-(((1-((1-(2-(2,6-dioxopiperidin-3-yl)-1,3-dioxoisoindolin-5-yl)piperidin-4-yl)methyl)piperidin-4-yl)methyl)amino)-9H-purin-9-yl)cyclobutyl)-6-methylpicolinamide] | 100/100/100% | 100/100/100% | 100/100/100% | 30% | 20% | 10% |
| O=C1CC[C@H](N2C(=O)c3cc(F)c(N4CCC(C(=O)N5CCC(CN6CCN(c7ccc(Nc8ncnc9c8ncn9[C@H]8C[C@@H](NC(=O)c9c(Cl)cccc9Cl)C8)cc7)CC6)CC5)CC4)cc3C2=O)C(=O)N1 [Compound 462, 2,6-dichloro-N-((1s,3s)-3-(6-((4-(4-((1-(1-(2-(2,6-dioxopiperidin-3-yl)-6-fluoro-1,3-dioxoisoindolin-5-yl)piperidin-4-carbonyl)piperidin-4-yl)methyl)piperazin-1-yl)phenyl)amino)-9H-purin-9-yl)cyclobutyl)benzamide] | 30% | 20% | 20% | 0/0/0% | 0/0/0% | 0/0/0% |
| O=C1CC[C@H](N2C(=O)c3ccc(N4CC(C(=O)N5CCC(CN6CCC(CCNc7ncnc8c7ncn8C7CC(NC(=O)c8c(Cl)cccc8Cl)C7)CC6)CC5)C4)cc3C2=O)C(=O)N1 (stereo partly drawn) [Compound 399, 2,6-dichloro-N-((1s,3s)-3-(6-((2-(1-((1-(1-(2-(2,6-dioxopiperidin-3-yl)-1,3-dioxoisoindolin-5-yl)azetidin-3-carbonyl)piperidin-4-yl)methyl)piperidin-4-yl)ethyl)amino)-9H-purin-9-yl)cyclobutyl)benzamide] | 30% | 40% | 40% | 0/0/0% | 0/0/0% | 0/0/0% |
